Data set [1] deals with Cortical neurone. Description: Antialzheimer activity in amyloid beta (25 to 35)-treated Sprague-Dawley rat cortical neurons assessed as dendrite extension activity at 1 uM after 4 days by fluorescence microscopic analysis. Type of data set: functional.
The nature of data set [2]: Cytotoxicity against Sprague-Dawley rat cortical neurons assessed as cell viability after 48 hrs by CellTiter-Glo luminescent assay. Conditions: cortical neurone. (In general: ATP-based viability assays read luminescence as a measure of living cells.)
Data set [3] in a line: Cytotoxicity against Sprague-Dawley rat cortical neurons assessed as cell viability at 1 to 10 uM after 48 hrs by CellTiter-Glo luminescent assay. As to conditions: cortical neurone.
In data set [4] the test system is Cortical neurone. Briefly: Antialzheimer activity in amyloid beta (25 to 35)-treated Sprague-Dawley rat cortical neurons assessed as dendrite extension activity at 10 uM after 4 days by fluorescence microscopic analysis. It is filed as functional.

The source made the active and inactive calls. The rule behind the calls is not given here.

As for `CCOc1cc2c(cc1O)[C@]1(C#N)CCC3(OCCO3)C3=CO[C@H](C2)[C@@H]31`, in the data set with Cortical neurone [1], the result was Active.
In the case of `N#C[C@]12CCC3(OCCO3)C3=CO[C@H](Cc4cc(-c5ccccc5)c(O)cc41)[C@@H]32`, in data set [2], the Activity entry was “Dose-dependent effect”.
Consider `Oc1ccc2c(c1)[C@@H]1CCC3(OCCO3)C3=CO[C@H](C2)[C@@H]31`, for which the outcome in the data set with Cortical neurone [1] was inactive.
Regarding `N#C[C@]12CCC3(OCCO3)C3=CO[C@H](Cc4ccc(O)cc41)[C@@H]32`, the Activity entry in data set [3] is “Non-toxic”.
On to `N#C[C@]12CC=CC3=CO[C@H](Cc4cc(C#CCCO)c(O)cc41)[C@@H]32`, for which, in data set [2], the Activity result is on record as “Dose-dependent effect”. Also, in the data set with Cortical neurone [1], the outcome was Active. In the data set on Cortical neurone [4], the result was inactive.
The matching figures for `N#C[C@]12CCC[C@@H]3CO[C@H](Cc4ccc(O)cc41)[C@@H]32`: “Dose-dependent effect”, “inactive” and “Active”.
Regarding `N#C[C@]12CCC3(OCCO3)[C@@H]3CO[C@H](Cc4ccc(O)cc41)[C@@H]32`, the outcome in the data set with Cortical neurone [1] was Active.
On the same count and under the same terms, as for `N#C[C@]12CCC3(OCCO3)C3=CO[C@H](Cc4cc(O)c(O)cc41)[C@@H]32`, the entry is “inactive”.
In the case of `N#C[C@]12CC[C@H](O)C3=CO[C@H](Cc4ccc(O)cc41)[C@@H]32`, the Activity entry in data set [2] is reported as “Dose-dependent effect”.
With `N#C[C@]12CCC3(OCCO3)C3=CO[C@H](Cc4cc(Sc5ccccc5)c(O)cc41)[C@@H]32`, the result in the data set on Cortical neurone [1] was Active.
In the case of `CCCCCCCCC/C=C/c1cc2c(cc1O)[C@]1(C#N)CCC3(OCCO3)C3=CO[C@H](C2)[C@@H]31`, the Activity entry in data set [2] was “Dose-dependent effect”. The outcome in the data set with Cortical neurone [1] was Active. Further, the result in the data set with Cortical neurone [4] was inactive.
Regarding `N#C[C@]12CCC3(OCCO3)C3=CO[C@H](Cc4cc(I)c(O)cc41)[C@@H]32`, the Activity result in data set [2] was “Dose-dependent effect”.
On the same count and under the same terms, the value for `N#C[C@]12CC=CC3=CO[C@H](Cc4cc(-c5ccccc5)c(O)cc41)[C@@H]32` was “Dose-dependent effect”.
Take `N#C[C@]12CC=CC3=CO[C@H](Cc4ccc(O)cc41)[C@@H]32`: the Activity result in data set [2] is given as “Dose-dependent effect”.
On to `C#Cc1cc2c(cc1O)[C@]1(C#N)CCC3(OCCO3)C3=CO[C@H](C2)[C@@H]31`, for which the Activity result in data set [2] is “Dose-dependent effect”. For the same compound, the result in the data set on Cortical neurone [1] was inactive. Further, the outcome with Cortical neurone [4] was Active.
With `N#C[C@]12CC[C@H](O)[C@@H]3CO[C@H](Cc4ccc(O)cc41)[C@@H]32`, the Activity result in data set [2] was “Dose-dependent effect”.
Same read-out and setting: the value for `N#C[C@]12CCC3(OCCO3)C3=CO[C@H](Cc4cc(C#CCCO)c(O)cc41)[C@@H]32` was “Dose-dependent effect”.
`C#Cc1cc2c(cc1O)[C@]1(C#N)CC=CC3=CO[C@H](C2)[C@@H]31`: the Activity result in data set [2] is “Dose-dependent effect”. Further, in the data set on Cortical neurone [1], the result was inactive. For the same compound, the outcome with Cortical neurone [4] was Active.

Values taken from ChEMBL document CHEMBL2413019, “Structure-activity-relationship studies on dihydrofuran-fused perhydrophenanthrenes as an anti-Alzheimer's disease agent” (Bioorg Med Chem, 2013).
